Results published in PubChem BioAssay (NCI).
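Five concentrations, 48 hours, 96-well plates. TGI denotes the concentration required for complete inhibition of growth.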

tested on: UACC-62 melanoma; experiment: NCI-60 cell line screen, 48 h

| Compound | TGI [µM] |
| --- | --- |
| CN(C)C(=S)/N=c1\ssc(=S)n1C1CCCCC1 | 34.2 |
| CCCCCCCCCCCCNC(=S)OC | 30.7 |
| O=c1[nH]c2cc(Cl)ccc2nc1/C(=N\Nc1ccccc1)C(O)c1ccc(Cl)c(Cl)c1 (centres undefined) | > 100 |
| S=P1(Oc2ccccc2)NNP2(=NP(N3CC3)(N3CC3)=NP(N3CC3)(N3CC3)=N2)NN1 (centres undefined) | > 100 |
| CN(C)CC1CCCC/C1=N/O (centres undefined) | > 100 |
| COc1c(CC(C)=O)ccc2c1C(=O)c1ccc(C=O)c(OC(C)=O)c1C2=O | 18.5 |

tested on: NCI-H226 lung; experiment: NCI-60 cell line screen, 48 h

| Compound | TGI [µM] |
| --- | --- |
| COc1ccc2c(c1)[n+]([O-])c(C(N)=O)c(N)[n+]2[O-] | > 100 |
| Clc1ccc2cccc3c2c1C1OC3c2ccccc21 (centres undefined) | > 100 |
| CN(C)C(=S)/N=c1\ssc(=S)n1C1CCCCC1 | > 100 |
| O=c1[nH]c2cc(Cl)ccc2nc1/C(=N\Nc1ccccc1)C(O)c1ccc(Cl)c(Cl)c1 (centres undefined) | > 100 |
| S=P1(Oc2ccccc2)NNP2(=NP(N3CC3)(N3CC3)=NP(N3CC3)(N3CC3)=N2)NN1 (centres undefined) | > 100 |
| CN(C)CC1CCCC/C1=N/O (centres undefined) | > 100 |
| COc1c(CC(C)=O)ccc2c1C(=O)c1ccc(C=O)c(OC(C)=O)c1C2=O | 36.2 |

tested on: CAKI-1 renal; experiment: NCI-60 cell line screen, 48 h

| Compound | TGI [µM] |
| --- | --- |
| COc1ccc2c(c1)[n+]([O-])c(C(N)=O)c(N)[n+]2[O-] | > 100 |
| CN(C)C(=S)/N=c1\ssc(=S)n1C1CCCCC1 | 90.6 |
| CCCCCCCCCCCCNC(=S)OC | 28.3 |
| S=P1(Oc2ccccc2)NNP2(=NP(N3CC3)(N3CC3)=NP(N3CC3)(N3CC3)=N2)NN1 (centres undefined) | > 100 |
| CN(C)CC1CCCC/C1=N/O (centres undefined) | > 100 |
| COc1c(CC(C)=O)ccc2c1C(=O)c1ccc(C=O)c(OC(C)=O)c1C2=O | 47 |

tested on: KM20L2 colon; experiment: NCI-60 cell line screen, 48 h

| Compound | TGI [µM] |
| --- | --- |
| COc1ccc2c(c1)[n+]([O-])c(C(N)=O)c(N)[n+]2[O-] | > 100 |
| Clc1ccc2cccc3c2c1C1OC3c2ccccc21 (centres undefined) | > 100 |
| CN(C)C(=S)/N=c1\ssc(=S)n1C1CCCCC1 | > 100 |
| CCCCCCCCCCCCNC(=S)OC | 30 |
| O=c1[nH]c2cc(Cl)ccc2nc1/C(=N\Nc1ccccc1)C(O)c1ccc(Cl)c(Cl)c1 (centres undefined) | > 100 |
| CN(C)CC1CCCC/C1=N/O (centres undefined) | > 100 |
| COc1c(CC(C)=O)ccc2c1C(=O)c1ccc(C=O)c(OC(C)=O)c1C2=O | 37.8 |

tested on: ACHN renal; experiment: NCI-60 cell line screen, 48 h

| Compound | TGI [µM] |
| --- | --- |
| COc1ccc2c(c1)[n+]([O-])c(C(N)=O)c(N)[n+]2[O-] | > 100 |
| Clc1ccc2cccc3c2c1C1OC3c2ccccc21 (centres undefined) | > 100 |
| CN(C)C(=S)/N=c1\ssc(=S)n1C1CCCCC1 | > 100 |
| CCCCCCCCCCCCNC(=S)OC | 33 |
| O=c1[nH]c2cc(Cl)ccc2nc1/C(=N\Nc1ccccc1)C(O)c1ccc(Cl)c(Cl)c1 (centres undefined) | > 100 |
| S=P1(Oc2ccccc2)NNP2(=NP(N3CC3)(N3CC3)=NP(N3CC3)(N3CC3)=N2)NN1 (centres undefined) | > 100 |
| CN(C)CC1CCCC/C1=N/O (centres undefined) | > 100 |
| COc1c(CC(C)=O)ccc2c1C(=O)c1ccc(C=O)c(OC(C)=O)c1C2=O | 51.3 |

tested on: NCI-H23 lung; experiment: NCI-60 cell line screen, 48 h

| Compound | TGI [µM] |
| --- | --- |
| COc1ccc2c(c1)[n+]([O-])c(C(N)=O)c(N)[n+]2[O-] | 97.7 |
| Clc1ccc2cccc3c2c1C1OC3c2ccccc21 (centres undefined) | > 100 |
| CN(C)C(=S)/N=c1\ssc(=S)n1C1CCCCC1 | > 100 |
| CCCCCCCCCCCCNC(=S)OC | 34 |
| O=c1[nH]c2cc(Cl)ccc2nc1/C(=N\Nc1ccccc1)C(O)c1ccc(Cl)c(Cl)c1 (centres undefined) | > 100 |
| S=P1(Oc2ccccc2)NNP2(=NP(N3CC3)(N3CC3)=NP(N3CC3)(N3CC3)=N2)NN1 (centres undefined) | > 100 |
| CN(C)CC1CCCC/C1=N/O (centres undefined) | > 100 |

tested on: OVCAR-4 ovarian; experiment: NCI-60 cell line screen, 48 h

| Compound | TGI [µM] |
| --- | --- |
| COc1ccc2c(c1)[n+]([O-])c(C(N)=O)c(N)[n+]2[O-] | > 100 |
| CN(C)C(=S)/N=c1\ssc(=S)n1C1CCCCC1 | > 100 |
| CCCCCCCCCCCCNC(=S)OC | 38.6 |
| O=c1[nH]c2cc(Cl)ccc2nc1/C(=N\Nc1ccccc1)C(O)c1ccc(Cl)c(Cl)c1 (centres undefined) | > 100 |
| S=P1(Oc2ccccc2)NNP2(=NP(N3CC3)(N3CC3)=NP(N3CC3)(N3CC3)=N2)NN1 (centres undefined) | > 100 |
| CN(C)CC1CCCC/C1=N/O (centres undefined) | > 100 |
| COc1c(CC(C)=O)ccc2c1C(=O)c1ccc(C=O)c(OC(C)=O)c1C2=O | 30.4 |

tested on: XF 498 CNS; experiment: NCI-60 cell line screen, 48 h

| Compound | TGI [µM] |
| --- | --- |
| Clc1ccc2cccc3c2c1C1OC3c2ccccc21 (centres undefined) | > 100 |
| CN(C)C(=S)/N=c1\ssc(=S)n1C1CCCCC1 | 59.3 |
| CCCCCCCCCCCCNC(=S)OC | 30.6 |
| S=P1(Oc2ccccc2)NNP2(=NP(N3CC3)(N3CC3)=NP(N3CC3)(N3CC3)=N2)NN1 (centres undefined) | > 100 |

tested on: NCI-H522 lung; experiment: NCI-60 cell line screen, 48 h

| Compound | TGI [µM] |
| --- | --- |
| COc1ccc2c(c1)[n+]([O-])c(C(N)=O)c(N)[n+]2[O-] | 31.1 |
| Clc1ccc2cccc3c2c1C1OC3c2ccccc21 (centres undefined) | > 100 |
